From paper PMC12775434, “Ultra-large virtual screening unveils potent agonists of the neuromodulatory orphan receptor GPR139” (Nature Communications, 2025)
Several values for one entry are separate records, joined by “and”; a condition that tells them apart may be missing. Equal values may be shown once. Read-outs that look alike come from different tables or passages of the source.

Experiments:
Assay type in all cases: cell-based
[1] = molecular target: T1, GPR139 (Homo sapiens, UniProt Q6DWJ6); experiment: Ca2+ mobilization assay, agonist mode, stable GPR139-CHOk1 cell line; settings: for Ca2+ signal (% of Cmp 1a): replicate experiments
T1 sequence (Q6DWJ6 1-353): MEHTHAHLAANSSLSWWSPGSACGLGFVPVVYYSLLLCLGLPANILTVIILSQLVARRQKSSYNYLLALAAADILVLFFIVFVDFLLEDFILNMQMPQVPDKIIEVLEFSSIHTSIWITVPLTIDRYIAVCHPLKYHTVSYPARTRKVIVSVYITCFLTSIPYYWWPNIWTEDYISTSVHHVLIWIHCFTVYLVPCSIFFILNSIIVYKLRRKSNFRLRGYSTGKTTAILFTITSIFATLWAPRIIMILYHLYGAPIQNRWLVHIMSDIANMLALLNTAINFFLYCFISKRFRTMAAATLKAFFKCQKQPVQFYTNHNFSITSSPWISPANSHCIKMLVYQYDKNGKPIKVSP
Method in brief: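 Agonist activity of compounds is assessed in stably transfected CHO-K1 cells using the calcium dye Fluo-4 at 37 °C in HEPES-buffered HBSS (pH 7.4). Efficacy is expressed relative to the reference agonist Lundbeck Cmp 1a, set as 100%.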

[2] = molecular target: T1, GPR139; experiment: Ca2+ mobilization assay, antagonist mode (EC80 800 nM Lundbeck Cmp 1a after 20 min preincubation), GPR139-CHOk1; settings: individual replicates
Method in brief: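 Fluo-4-loaded GPR139-CHOk1 cells in HEPES-buffered HBSS (pH 7.4, 2.5 mM probenecid) given test compounds at 10 µM, then after 20 min challenged with 800 nM Lundbeck Cmp 1a (EC80). Calcium fluorescence read at 37 °C, 485/525 nm.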

[3] = molecular target: T2, human muscarinic acetylcholine M1 receptor (M1R) (Homo sapiens, UniProt P11229); experiment: Ca2+ mobilization counter-screen in M1R-CHOk1 cells; settings: 10 µM
T2 sequence (P11229 1-460): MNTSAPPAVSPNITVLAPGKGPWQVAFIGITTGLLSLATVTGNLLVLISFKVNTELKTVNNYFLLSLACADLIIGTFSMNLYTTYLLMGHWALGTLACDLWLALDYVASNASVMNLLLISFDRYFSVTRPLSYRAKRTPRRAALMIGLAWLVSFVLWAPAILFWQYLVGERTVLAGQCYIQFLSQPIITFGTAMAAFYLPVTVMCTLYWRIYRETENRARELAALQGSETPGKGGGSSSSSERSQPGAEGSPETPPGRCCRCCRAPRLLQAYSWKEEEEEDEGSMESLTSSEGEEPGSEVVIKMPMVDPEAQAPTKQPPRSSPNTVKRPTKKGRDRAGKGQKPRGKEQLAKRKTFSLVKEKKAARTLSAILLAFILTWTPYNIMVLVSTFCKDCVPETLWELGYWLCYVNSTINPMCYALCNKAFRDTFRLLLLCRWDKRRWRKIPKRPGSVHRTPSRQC
Method in brief: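 M1R-CHOk1 cells seeded at 30,000/well for 20–24 h were loaded with 2 µM Fluo-4 AM for 1 h at 37 °C in HEPES-buffered HBSS (pH 7.4, 2.5 mM probenecid). Compounds were added after baseline reads, with DMSO at most 0.3% final. Calcium mobilization was read at 37 °C, excitation 485/emission 525 nm.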

COc1cc(OC)cc(C(=O)NNC(=O)Nc2cccc3ccccc23)c1 [Lundbeck Cmp 1a, reference compound]
EC50 ([1]; GPR139-CHOk1, read-out: EC50, Ca2+ mobilization): 200 nM
Emax ([1]; Supplementary Table 2, normalized to Lundbeck Cmp 1a, mean ± SEM, read-out: Emax (%) Ca2+): 108 ± 3%
EC50 ([1]; Supplementary Table 7, enantiopure compounds, read-out: pEC50, Ca2+ mobilization (converted)): 158 nM
Ca2+ signal (% of Cmp 1a) ([1]; log [Compound] M -4.5): 104 % of Cmp 1a and 101 % of Cmp 1a and 98 % of Cmp 1a and 116 % of Cmp 1a and 117 % of Cmp 1a and 88 % of Cmp 1a and 112 % of Cmp 1a and 95 % of Cmp 1a and 103 % of Cmp 1a and 94 % of Cmp 1a
Ca2+ signal (% of Cmp 1a) ([1]; log [Compound] M -5.0): 104 % of Cmp 1a and 115 % of Cmp 1a and 107 % of Cmp 1a and 118 % of Cmp 1a and 110 % of Cmp 1a and 88 % of Cmp 1a and 112 % of Cmp 1a and 119 % of Cmp 1a
Ca2+ signal (% of Cmp 1a) ([1]; log [Compound] M -5.5): 96 % of Cmp 1a and 113 % of Cmp 1a and 100 % of Cmp 1a and 95 % of Cmp 1a and 84 % of Cmp 1a and 88 % of Cmp 1a and 114 % of Cmp 1a and 103 % of Cmp 1a and 108 % of Cmp 1a and 126 % of Cmp 1a
Ca2+ signal (% of Cmp 1a) ([1]; log [Compound] M -6.0): 81 % of Cmp 1a and 96 % of Cmp 1a and 87 % of Cmp 1a and 69 % of Cmp 1a and 82 % of Cmp 1a and 73 % of Cmp 1a and 84 % of Cmp 1a and 75 % of Cmp 1a and 88 % of Cmp 1a and 109 % of Cmp 1a
Ca2+ signal (% of Cmp 1a) ([1]; log [Compound] M -6.5): 63 % of Cmp 1a and 62 % of Cmp 1a and 65 % of Cmp 1a and 67 % of Cmp 1a and 53 % of Cmp 1a and 60 % of Cmp 1a and 76 % of Cmp 1a and 64 % of Cmp 1a and 68 % of Cmp 1a
Ca2+ signal (% of Cmp 1a) ([1]; log [Compound] M -7.0): 38 % of Cmp 1a (2×) and 39 % of Cmp 1a
Ca2+ signal (% of Cmp 1a) ([1]; log [Compound] M -7.5): 20 % of Cmp 1a and 15 % of Cmp 1a and 23 % of Cmp 1a and 11 % of Cmp 1a and 2.33 % of Cmp 1a and 22 % of Cmp 1a and 19 % of Cmp 1a and 29 % of Cmp 1a and 16 % of Cmp 1a and 35 % of Cmp 1a
Ca2+ signal (% of Cmp 1a) ([1]; log [Compound] M -8.0): 1.56 % of Cmp 1a and 5 % of Cmp 1a and 17 % of Cmp 1a and -13 % of Cmp 1a and 8 % of Cmp 1a and 12 % of Cmp 1a and 9 % of Cmp 1a and 3 % of Cmp 1a and 6.33 % of Cmp 1a
Ca2+ signal (% of Cmp 1a) ([1]; log [Compound] M -8.5): -0.447 % of Cmp 1a and 1.52 % of Cmp 1a and 10 % of Cmp 1a and -20 % of Cmp 1a and 2.33 % of Cmp 1a and 11 % of Cmp 1a and 4.67 % of Cmp 1a and -2 % of Cmp 1a and -1 % of Cmp 1a and 5 % of Cmp 1a and 23 % of Cmp 1a
Ca2+ signal (% of Cmp 1a) ([1]; log [Compound] M -9.0): -1.54 % of Cmp 1a and 0.497 % of Cmp 1a and 16 % of Cmp 1a and -12 % of Cmp 1a and 8 % of Cmp 1a and 9 % of Cmp 1a and 3.33 % of Cmp 1a and 13 % of Cmp 1a and 11 % of Cmp 1a
Ca2+ signal (% of Cmp 1a) ([2]; 10 µM compound + 800 nM Cmp 1a): 6.33 % of Cmp 1a and 14 % of Cmp 1a and 11 % of Cmp 1a
Ca2+ signal (% of Cmp 1a) ([2]; Vehicle + 800 nM Cmp 1a): 92 % of Cmp 1a and 84 % of Cmp 1a and 83 % of Cmp 1a
Ca2+ signal (% of Cmp 1a) ([2]; Vehicle + 10 µM Cmp 1a): 100 % of Cmp 1a
Ca2+ signal (% of Carbachol) ([3]; individual replicates (Supplementary Figure 2)): -13 % of Carbachol and 8 % of Carbachol
Ca2+ signal (% of Carbachol) ([3]; individual replicates (Supplementary Figure 5)): -0.591 % of Carbachol and 1.3 % of Carbachol and 0.449 % of Carbachol
